Patent US8343976B2, “Compounds, compositions and methods comprising pyrazole derivatives” (Institute for OneWorld Health, priority 2009, dated 2013)

Biological target: T1, CFTR (Homo sapiens, UniProt P13569)
T1 construct: results in the phosphorylation and opening of CFTR anion channels; host or cells: Human colonic T84 cells
Assay: T84 assay (FLIPR membrane potential dye, forskolin/IBMX-stimulated CFTR channel activity)
Format: cell-based
Settings: Human colonic T84 cells; 10 μM forskolin + 100 μM IBMX; average of at least 2 runs unless marked n = 1
Experimental: (§1) For example, Human colonic T84 cells can be acquired from the European Collection of Cell Cultures (ECACC) and grown in standard culture conditions as described by the supplier. On the day before assay 25,000 T84 cells per well are plated into standard black walled, clear bottom 384-well assay plates in standard growth medium consisting of DMEM:F12 with 10% FBS and incubated overnight. On the day of the assay the plates are washed using a standard assay buffer (HBSS with 10 mM Hepes) and incubated for 15 minutes in serum free cell culture medium before the addition of a commercially available membrane potential sensitive fluorescent dye (FLIPR Red membrane potential dye, Molecular Devices Corporation). T84 cells are incubated with the FLIPR Red membrane potential dye for 45 minutes in the presence and absence of test compound before being transferred to a commercially available fluorescence imaging plate reader (FLIPR384, Molecular Devices Corporation). Fluorescence levels are monitored continuously every second for 150 seconds; after an initial 10 second baseline, CFTR channel activity is stimulated through the addition of 10 μM forskolin in the presence of 100 μM of the phosphodiesterase inhibitor iso-butylmethylxanthine (IBMX). Addition of the forskolin leads to the activation of intracellular adenylyl cylase 1, elevating cAMP levels and results in the phosphorylation and opening of CFTR anion channels. CFTR channel opening causes chloride ion efflux and subsequent depolarization of the cells, which is measured by an increase in fluorescence. CFTR inhibitor compounds prevent cell depolarization and the associated increase in fluorescence.
as §1, with “Human colonic” for “For example, Human colonic”, “T84 cells are acquired from” for “T84 cells can be acquired from”, “(ECACC) and are grown in” for “(ECACC) and grown in”

T1 sequence (P13569 whole entry): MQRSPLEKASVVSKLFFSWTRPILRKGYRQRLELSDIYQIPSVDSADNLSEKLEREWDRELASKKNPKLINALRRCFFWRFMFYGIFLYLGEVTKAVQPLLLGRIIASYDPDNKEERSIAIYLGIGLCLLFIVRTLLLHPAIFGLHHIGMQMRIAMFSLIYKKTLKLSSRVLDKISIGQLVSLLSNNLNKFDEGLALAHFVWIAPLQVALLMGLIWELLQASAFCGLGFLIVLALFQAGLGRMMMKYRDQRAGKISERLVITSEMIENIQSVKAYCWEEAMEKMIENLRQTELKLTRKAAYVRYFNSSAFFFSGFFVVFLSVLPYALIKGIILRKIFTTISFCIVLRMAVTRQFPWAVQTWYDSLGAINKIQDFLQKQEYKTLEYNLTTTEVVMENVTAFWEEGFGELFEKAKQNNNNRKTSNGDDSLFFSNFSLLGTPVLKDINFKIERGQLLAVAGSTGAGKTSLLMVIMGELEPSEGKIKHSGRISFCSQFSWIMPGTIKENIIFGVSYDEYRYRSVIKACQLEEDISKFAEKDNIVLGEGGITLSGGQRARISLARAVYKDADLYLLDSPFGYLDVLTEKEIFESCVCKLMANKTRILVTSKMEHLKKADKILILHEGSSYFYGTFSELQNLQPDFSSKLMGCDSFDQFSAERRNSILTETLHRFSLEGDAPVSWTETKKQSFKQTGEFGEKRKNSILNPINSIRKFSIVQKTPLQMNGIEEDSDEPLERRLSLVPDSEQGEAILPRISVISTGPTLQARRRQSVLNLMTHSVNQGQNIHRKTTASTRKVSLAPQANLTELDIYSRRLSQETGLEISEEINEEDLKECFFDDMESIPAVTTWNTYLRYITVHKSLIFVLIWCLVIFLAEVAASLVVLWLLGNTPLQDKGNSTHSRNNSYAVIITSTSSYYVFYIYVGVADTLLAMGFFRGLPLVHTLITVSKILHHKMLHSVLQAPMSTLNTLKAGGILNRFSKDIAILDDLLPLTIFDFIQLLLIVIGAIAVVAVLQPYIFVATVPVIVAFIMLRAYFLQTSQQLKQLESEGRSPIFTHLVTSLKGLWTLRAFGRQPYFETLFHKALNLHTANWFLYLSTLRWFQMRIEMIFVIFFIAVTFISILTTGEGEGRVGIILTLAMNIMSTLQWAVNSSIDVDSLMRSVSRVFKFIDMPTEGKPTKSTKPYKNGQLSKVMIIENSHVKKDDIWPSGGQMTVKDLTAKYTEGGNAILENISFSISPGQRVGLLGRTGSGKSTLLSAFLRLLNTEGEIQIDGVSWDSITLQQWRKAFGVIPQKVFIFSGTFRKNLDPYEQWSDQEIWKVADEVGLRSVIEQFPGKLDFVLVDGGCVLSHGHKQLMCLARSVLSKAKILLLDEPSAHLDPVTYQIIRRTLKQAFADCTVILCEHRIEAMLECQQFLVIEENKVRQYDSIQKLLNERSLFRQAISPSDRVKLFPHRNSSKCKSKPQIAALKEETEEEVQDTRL

IC50 [µM]	Structure (SMILES)
17.4	CC(C)(C)c1ccc(CNC(=O)c2cc(-c3cc(Cl)c(O)c(Cl)c3)n[nH]2)cc1 [Compound 6, N-(4-tert-butylbenzyl)-3-(3,5-dichloro-4-hydroxyphenyl)-1H-pyrazole-5-carboxamide]
21	CN(Cc1ccc(Oc2ccccn2)cc1)C(=O)c1cc(-c2cc(Cl)c(O)c(Cl)c2)n[nH]1 [Compound 7, 3-(3,5-dichloro-4-hydroxyphenyl)-N-methyl-N-(4-(pyridin-2-yloxy)benzyl)-1H-pyrazole-5-carboxamide]
16.5	CN(Cc1ccc(C(C)(C)C)cc1)C(=O)c1cc(-c2cc(Cl)c(O)c(Cl)c2)n[nH]1 [Compound 8, N-(4-tert-butylbenzyl)-3-(3,5-dichloro-4-hydroxyphenyl)-N-methyl-1H-pyrazole-5-carboxamide]
29.8	O=C(NCc1ccc(F)c(C(F)(F)F)c1)c1cc(-c2cc(Cl)c(O)c(Cl)c2)n[nH]1 [Compound 9, 3-(3,5-dichloro-4-hydroxyphenyl)-N-(4-fluoro-3-(trifluoromethyl)benzyl)-1H-pyrazole-5-carboxamide]
29.6	O=C(c1cc(-c2cc(Cl)c(O)c(Cl)c2)n[nH]1)N1CCN(c2cccc(C(F)(F)F)c2)CC1 [Compound 10, (3-(3,5-dichloro-4-hydroxyphenyl)-1H-pyrazol-5-yl)(4-(3-(trifluoromethyl)phenyl)piperazin-1-yl)methanone]

The next lines start with the molecule.

Structure (SMILES)	IC50 [µM]
CN(Cc1cccc(C(F)(F)F)c1)C(=O)c1cc(-c2cc(Cl)c(O)c(Cl)c2)n[nH]1 [Compound 1, 3-(3,5-dichloro-4-hydroxyphenyl)-N-methyl-N-(3-(trifluoromethyl)benzyl)-1H-pyrazole-5-carboxamide]	9.06
O=C(NCc1cccc(OC(F)(F)F)c1)c1cc(-c2cc(Cl)c(O)c(Cl)c2)n[nH]1 [Compound 2, 3-(3,5-dichloro-4-hydroxyphenyl)-N-(3-(trifluoromethoxy)benzyl)-1H-pyrazole-5-carboxamide]	18.7
O=C(NCCC(c1ccccc1)c1ccccc1)c1cc(-c2cc(Cl)c(O)c(Cl)c2)n[nH]1 [Compound 3, 3-(3,5-dichloro-4-hydroxyphenyl)-N-(3,3-diphenylpropyl)-1H-pyrazole-5-carboxamide]	3.46
CN(Cc1ccc(Oc2ccccc2)cc1)C(=O)c1cc(-c2cc(Cl)c(O)c(Cl)c2)n[nH]1 [Compound 4, 3-(3,5-dichloro-4-hydroxyphenyl)-N-methyl-N-(4-phenoxybenzyl)-1H-pyrazole-5-carboxamide]	21.1
O=C(NCc1ccc(Cl)c(Cl)c1)c1cc(-c2cc(Cl)c(O)c(Cl)c2)n[nH]1 [Compound 5, 3-(3,5-dichloro-4-hydroxyphenyl)-N-(3,4-dichlorobenzyl)-1H-pyrazole-5-carboxamide]	29.5
